# Source: article PMC8217170, “Phase Ib dose-escalation study of the hypoxia-modifier Myo-inositol trispyrophosphate in patients with hepatopancreatobiliary tumors” (Nature Communications, 2021)
# “And” between values parts separate entries of the source, which are not always exact repeats. Equal entries are not always repeated. Where two headings read alike, the source gives them in different places.
# Key:
# [1] = system: pancreatic carcinoma; set-up: method as in ref 15 (supplementary references); details: ref 15 (supplementary references), cited from earlier work
# [2] = system: HIF2α; experiment: Immunohistochemistry of tumor tissue before vs after ITPP, one patient; type: in vivo, human; details: patient nr. 21, CRLM, only weak staining
# Method: (§1) Samples were collected in 4% buffered formaldehyde, dehydrated, embedded in paraffin and cut into 5 µm sections and stained after antigen retrieval. Hematoxylin/eosin and Masson’s trichrome stains were performed according to standard protocols. The following antibodies were used for immunohistochemical staining: pan-B cytokeratin (CkpanB, Dako, M3515, dilution 1/50), HIF1α (Abcam, ab16066, dilution 1/400), HIF2α (Abcam, ab199, dilution 1/50), carbonic anhydrase 9 (CA9, Abcam, ab15086, dilution 1/3000), glucose transporter 1/SLC2A1 (GLUT1, Millipore, 07-1401, dilution 1/1000), PECAM1 / CD31 (Dako, M0823, dilution 1/10), ETS transcription factor (ERG, Roche, 790-4576, prediluted) and vimentin (VIM, Dako, M7020, dilution 1/250). For histological analyses, 5 random images of tumor areas of stained slides were taken at 40x magnification. Stained areas were isolated by color deconvolution and thresholding. Quantification of staining intensity was measured on thresholded areas, converted onto a scale from 0 (white, no staining) to 100 (black, completely stained) and compared between the sample taken before ITPP treatment and the one after. For calculation of percentage area stained, thresholded areas were compared to the complete area of the picture. ImageJ (V1.53c, National Institutes of Health, USA) was used for all histological analyses.
# (§2) This analyses must be regarded with caution due to n=1!
# [3] = system: SLC2A1/GLUT1; experiment: as above; type: in vivo, human; details: patient nr. 21, CRLM
# Method: as §1, §2
# [4] = system: ERG; experiment: as above; type: in vivo, human
# Method: as §1, §2
# [5] = system: HIF1α; experiment: as above; type: in vivo, human
# Method: as §1, §2
# [6] = system: PECAM1/CD31; experiment: as above; type: in vivo, human; details: CD31 stain, group After (ITPP), one value per image field; threshold 0-90
# Method: as §1, §2
# [7] = system: Vimentin; experiment: as above; type: in vivo, human
# Method: as §1, §2
# [8] = system: carbonic anhydrase 9 (CA9); experiment: as above; type: in vivo, human
# Method: as §1, §2
# [9] = system: PECAM1/CD31; experiment: Serum angiogenesis marker, multiplex bead-based immunoassay (LEGENDplex); type: in vivo, human; details: for PECAM_1: serum, duplicate wells
# Method: Serum angiogenesis markers were quantified by multiplex bead-based immunoassays following provided instructions (LEGENDplex™, Biolegend, San Diego, CA/USA). For biochemical markers, the percentage change comparing before (day 1 0 h) with after (last day 9 h) ITPP treatment was calculated.
# [10] = set-up: method as in NormOxys phase I clinical trial; details: ref NormOxys phase I clinical trial, cited from earlier work
structure (smiles),measurement,setting,value
"O=P1(O)OC2C3OP(=O)(O)OP(=O)(O)OC3C3OP(=O)(O)OP(=O)(O)OC3C2OP(=O)(O)O1 (stereo not shown) [ITPP, Myo-inositol trispyrophosphate]",Survival,"[1]; ITPP combined with half the usual dose of gemcitabine, all animals",> 200 days
same,Survival,[1]; ITPP treatment alone,93 days
same,"HIF2α staining, before vs after ITPP treatment",[2],no difference
same,Expression of SLC2A1/GLUT1 in cancer cells after ITPP treatment,[3],downregulated
same,%Area,"[4]; Erg stain, group After (ITPP), one value per image field, threshold 0-130",0.53% and 0.557% and 0.323% and 0.603% and 0.393%
same,ERG after ITPP treatment,"[4]; patient nr. 21, CRLM",more abundant
same,%Area,"[5]; HIF1a stain, group After (ITPP), one value per image field, threshold 0-220",60.518% and 62.226% and 71.026% and 45.098% and 63.507%
same,"HIF1α staining, before vs after ITPP treatment","[5]; patient nr. 21, CRLM, only weak staining",no difference
same,%Area,[6],1.371% and 1.754% and 0.512% and 2.094% and 0.52%
same,%Area,"[7]; Vim stain, group After (ITPP), one value per image field, threshold 0-160",29.786% and 30.117% and 24.166% and 28.151% and 26.502%
same,Vimentin after ITPP administration,"[7]; patient nr. 21, CRLM",decreased
same,%Area,"[8]; CAIX stain, group After (ITPP), one value per image field, threshold 0-130",0.006% and 0.014% and 0.943% and 0.008% and 0.048%
same,Expression of carbonic anhydrase 9 (CA9) after ITPP treatment,"[8]; patient nr. 21, CRLM",decreased
same,Share of patients with reduced PECAM1,"[9]; following ITPP treatment, 27 patients",66.7%
same,PECAM_1,"[9]; Patient 25, Cohort 8, PDAC, Day 3 post",261.09
same,PECAM_1,"[9]; Patient 25, Cohort 8, PDAC, Day 9 post",287.51 and 289.5
same,PECAM_1,"[9]; Patient 26, Cohort 8, PDAC, Day 3 post",298.56 and 289.5
same,PECAM_1,"[9]; Patient 26, Cohort 8, PDAC, Day 9 post",215.26 and 221.83
same,PECAM_1,"[9]; Patient 27, Cohort 8, CCC, Day 3 post",350.64 and 331.88
same,PECAM_1,"[9]; Patient 27, Cohort 8, CCC, Day 9 post",286.17 and 303.44
same,PECAM_1,"[9]; Patient 28, Cohort 8, CRLM, Day 3 post",299.11 and 271.68
same,PECAM_1,"[9]; Patient 28, Cohort 8, CRLM, Day 9 post",262.91 and 211.07
same,Subjects with treatment-emerged adverse effects (TEAEs),"[10]; ITPP-treated group, 750 to 5600 mg/m2, intravenous infusion during 4 h",9/24
same,Dose well tolerated in unaffected volunteers,[10],5600 mg/m2
same,Serious adverse effects or deaths associated with TEAEs,[10],No serious adverse effects (SAEs) or deaths
